From ChEMBL document CHEMBL6074633, “Assessing the inhibitory effects of some secondary amines, thioureas and 1,3-dimethyluracil conjugates of (-)-cytisine and thermopsine on the RNA-dependent RNA polymerase of SARS-CoV-1 and SARS-CoV-2” (Bioorg Med Chem Lett, 2024)
The source made the active and inactive calls. No cut-off for these calls is given here.

Assays:
SARS-CoV-2 [1] = assay: Antiviral activity against SARS CoV-2 replicon-based SRIP; format: functional, organism-based; details: Severe acute respiratory syndrome coronavirus 2
[2] = biological target: Replicase polyprotein 1ab (Severe acute respiratory syndrome coronavirus 2) (UniProt P0DTD1); assay: Inhibition of SARS CoV-2 RdRp at 10 uM incubated for 2 hrs by fluorescence based assay relative to control
SARS-CoV [3] = format: functional, organism-based; details: Severe acute respiratory syndrome-related coronavirus; Calu-3; dose <= 1.0 µM, time 120.0 hrs
[4] = Cytotoxicity against human Calu-3 cells assessed as cell viability incubated for 96 hrs by MTT assay; format: toxicity, cell-based
SARS-CoV [5] = format: functional, organism-based; details: Severe acute respiratory syndrome-related coronavirus
SARS-CoV [6] = format: functional, organism-based; details: Severe acute respiratory syndrome-related coronavirus; Calu-3; dose <= 1.0 µM, time 96.0 hrs
[7] = biological target: Replicase polyprotein 1ab (Severe acute respiratory syndrome coronavirus 2, UniProt P0DTD1); assay: (§1) Inhibition of SARS CoV-2 RdRp incubated for 2 hrs by fluorescence based assay
[8] = biological target: Replicase polyprotein 1ab (Severe acute respiratory syndrome coronavirus 2) (UniProt P0DTD1); assay: as §1
SARS-CoV-2 [9] = format: functional, organism-based; details: Severe acute respiratory syndrome coronavirus 2; Calu-3; dose <= 1.0 µM, time 120.0 hrs
SARS-CoV-2 [10] = format: functional, organism-based; details: Severe acute respiratory syndrome coronavirus 2; Calu-3; dose <= 1.0 µM, time 96.0 hrs
SARS-CoV-2 [11] = format: functional, organism-based
in vitro = details: human, Calu-3 cells

For `CC(C)C[C@H](NC(=O)OCc1ccccc1)C(=O)N[C@@H](C[C@@H]1CCNC1=O)C(O)S(=O)(=O)O` (some centres undefined), the EC50 (SARS-CoV-2 [1]) was 170 nM.
Work on `O=c1cccc2n1C[C@H]1C[C@@H]2CN(C(=S)Nc2ccccc2)C1` yielded an inhibition [2] of under 38%.
With `Cn1cc(CNc2ccc3n(c2=O)C[C@H]2C[C@@H]3CN3CCCC[C@@H]23)c(=O)n(C)c1=O` the inhibition [2] was under 38%.
For `Cn1cc(CNc2ccc3n(c2=O)C[C@H]2C[C@@H]3CN(Cc3ccccc3)C2)c(=O)n(C)c1=O`, the Activity (SARS-CoV [3]) was “Active”, the CC50 at 96 h [4] was over 100000 nM and the EC50 (SARS-CoV [5]; Calu-3, 96 h) was 120 nM. The Activity (SARS-CoV [5]; Calu-3, dose 0.1-10 µM, time 96.0 hrs) was “Dose-dependent-effect”, the inhibition [2] was 64% and the Activity (SARS-CoV [6]) was “Active”. The IC50 [7] was 7800 nM, the inhibition [8] was “Dose-dependent-effect” and the Activity (SARS-CoV-2 [9]) was “Active”. The Activity (SARS-CoV-2 [10]) was “Active”, the EC50 (SARS-CoV-2 [11]; Severe acute respiratory syndrome coronavirus 2, Calu-3, 96 h) was 1470 nM and the Activity (SARS-CoV-2 [11]; Severe acute respiratory syndrome coronavirus 2, Calu-3, dose 0.1-10 µM, time 96.0 hrs) was “Dose-dependent-effect”. It also gave a selectivity ratio (in vitro) of over 68.
Molecule `C=CCNC(=S)N1C[C@@H]2C[C@H](C1)c1ccc([N+](=O)[O-])c(=O)n1C2` has an inhibition [2] of under 38%.
`CCOC(=O)CNC(=S)Nc1ccc2n(c1=O)C[C@H]1C[C@@H]2CN(C)C1` showed an inhibition [2] of under 38%.
In the case of `CCC(CC)COC(=O)[C@H](C)N[P@](=O)(OC[C@H]1O[C@@](C#N)(c2ccc3c(N)ncnn23)[C@H](O)[C@@H]1O)Oc1ccccc1` [REMDESIVIR], the EC50 (SARS-CoV-2 [1]) is reported as 170 nM.
`CN1C[C@@H]2C[C@H](C1)c1ccc(NCc3ccccc3O)c(=O)n1C2` showed an inhibition [2] of under 38%.
Molecule `CC(C)NC(=S)Nc1ccc2n(c1=O)C[C@H]1C[C@@H]2CN(C)C1` has an inhibition [2] of under 38%.
`O=c1ccc(Cl)c2n1C[C@H]1C[C@@H]2CN(C(=S)Nc2ccccc2)C1` gave an inhibition [2] of under 38%.
`CN1C[C@@H]2C[C@H](C1)c1ccc(NC/C=C/c3ccccc3)c(=O)n1C2` gave an inhibition [2] of under 38%.
In the case of `COC(=O)CN1C[C@@H]2C[C@H](C1)c1ccc(NCc3cn(C)c(=O)n(C)c3=O)c(=O)n1C2`, the inhibition [2] is reported as under 38%.
